Test results taken from patent publication US7786141B2 (Vertex Pharmaceuticals Incorporated, priority 2004, dated 2010).
Read-outs that look alike come from different tables or passages of the source.

Columns and labels:
M4 muscarinic receptor = biological target: T1, M4 muscarinic receptor (Homo sapiens, UniProt P08173); assay: Functional mobilization of intracellular calcium (FLIPR) in M4-CHO cells; type: cell-based; conditions: for EC50: CHO cells expressing M4, calcium mobilization
T1 construct: expressed in transfected cells; host or cells: CHO (M4-CHO)
T1 sequence (P08173 1-479): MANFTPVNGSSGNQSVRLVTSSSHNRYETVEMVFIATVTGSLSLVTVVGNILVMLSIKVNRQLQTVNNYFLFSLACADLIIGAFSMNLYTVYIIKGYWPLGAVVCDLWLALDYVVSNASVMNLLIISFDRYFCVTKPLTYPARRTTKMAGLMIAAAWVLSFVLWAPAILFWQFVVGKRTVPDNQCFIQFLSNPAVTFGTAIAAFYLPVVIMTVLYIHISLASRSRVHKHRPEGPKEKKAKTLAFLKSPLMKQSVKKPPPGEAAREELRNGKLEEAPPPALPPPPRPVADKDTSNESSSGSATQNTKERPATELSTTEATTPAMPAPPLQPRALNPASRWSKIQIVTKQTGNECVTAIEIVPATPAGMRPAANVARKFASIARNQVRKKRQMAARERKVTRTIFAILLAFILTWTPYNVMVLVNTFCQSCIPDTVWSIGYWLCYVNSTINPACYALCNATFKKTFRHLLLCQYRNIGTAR
Summary of the method: (§1)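 FLIPR Ca2+ read, ex 488/em 540 nm, 60 s. Recombinant CHO lines (M1 or M4), dye-loaded Fluo-3 AM 60-90 min at 37° C, probenecid 1 mM, pH 7.4. Agonist: compound alone; inhibition: 15 min compound pre-incubation, then carbachol at EC80 for that subtype.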

M1 muscarinic receptor = biological target: T2, M1 muscarinic receptor (Homo sapiens, UniProt P11229); assay: Functional mobilization of intracellular calcium (FLIPR) in M1-CHO cells; type: cell-based; conditions: for EC50: CHO cells expressing M1, calcium mobilization
T2 construct: expressed in transfected cells; host or cells: CHO (M1-CHO)
T2 sequence (P11229 1-460): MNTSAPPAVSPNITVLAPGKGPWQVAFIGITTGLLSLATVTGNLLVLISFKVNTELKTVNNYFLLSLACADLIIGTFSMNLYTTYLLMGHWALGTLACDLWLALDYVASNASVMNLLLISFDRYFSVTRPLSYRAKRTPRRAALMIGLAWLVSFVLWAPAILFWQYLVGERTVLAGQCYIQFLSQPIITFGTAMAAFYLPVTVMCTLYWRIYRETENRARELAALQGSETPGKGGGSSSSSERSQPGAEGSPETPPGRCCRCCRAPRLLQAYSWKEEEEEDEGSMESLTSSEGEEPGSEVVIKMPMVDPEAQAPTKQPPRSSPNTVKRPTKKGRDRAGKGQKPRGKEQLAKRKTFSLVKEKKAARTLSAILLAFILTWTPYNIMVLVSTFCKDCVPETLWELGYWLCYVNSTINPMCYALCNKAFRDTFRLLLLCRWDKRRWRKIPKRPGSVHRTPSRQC
Summary of the method: as §1

[1] = Table 4, 100% efficacy is the maximum response obtained with the Carbachol control
[2] = Table 4, M4 receptor, calcium mobilization (FLIPR)
[3] = Table 4, M1 receptor, calcium mobilization (FLIPR)
[4] = M4 receptor, calcium mobilization
[5] = M4 receptor, calcium mobilization, read-out: M4 Efficacy
[6] = M1 receptor, calcium mobilization
[7] = M1 receptor, calcium mobilization, read-out: M1 Efficacy
[8] = Table 4, modulating M4 receptor
[9] = Table 4, modulating M1 receptor
[10] = 100% efficacy is the maximum response obtained with the Carbachol control, Table 5

Structure (SMILES)	Emax (M4 muscarinic receptor; [1]) [%]	Emax (M1 muscarinic receptor; [1]) [%]	M4 Activity (M4 muscarinic receptor; [4])	Emax (M4 muscarinic receptor; [5]) [%]	M1 Activity (M1 muscarinic receptor; [6])	Emax (M1 muscarinic receptor; [7]) [%]	also measured
CN(C)C(=O)N1CC2(CCN(C3CCN(c4cnccn4)CC3)CC2)c2cc(F)ccc21 [compound 895]	25 to 100	25 to 100	–	–	–	–	M4 Activity (M4 muscarinic receptor; [2]): xxx (activity was measured to be less than 2.0 μM); M1 Activity (M1 muscarinic receptor; [3]): xxx (activity was measured to be less than 2.0 μM)
CC(=O)NC1CC2(CCN(C3CC4CCC3C4)CC2)c2ccccc21 (stereo not shown) [compound 291]	–	–	x (activity was measured to be greater than 1.0 μM)	65 to 85	xx (activity was measured to be between 0.1 μM and 1.0 μM)	65 to 85	–
COCCOC(=O)N1CC[C@H](CN2CCC3(CC2)CN(C(C)=O)c2ccccc23)C1 [compound 681]	< 25	25 to 100	–	–	–	–	M4 Activity (M4 muscarinic receptor; [8]): x (activity was measured to be greater than 5.0 μM); M1 Activity (M1 muscarinic receptor; [9]): x (activity was measured to be greater than 5.0 μM)
CC(=O)N[C@H]1CC2(CCN(CC3CCCCC3)CC2)c2ccccc21 [compound 184]	–	–	x (activity was measured to be greater than 1.0 μM)	65 to 85	xx (activity was measured to be between 0.1 μM and 1.0 μM)	> 85	–
C#CCOC(=O)N1CCC(CN2CCC3(CC2)CN(C(C)=O)c2ccc(F)cc23)CC1 [compound 316]	–	–	x (activity was measured to be greater than 1.0 μM)	< 65	x (activity was measured to be greater than 1.0 μM)	< 65	–
CN(C)C(=O)N1CC2(CCN(C3CCN(c4ccc(F)cc4)CC3)CC2)c2cc(F)ccc21 [compound 1026]	–	–	–	–	–	–	Emax (M4 muscarinic receptor; [10]): < 25%; EC50 (M4 muscarinic receptor; Table 5): < 2000 nM; Emax (M1 muscarinic receptor; [10]): 25 to 100%; EC50 (M1 muscarinic receptor; Table 5): 2000 to 10000 nM
c1ccc2c(c1)NCC21CCN(C2CCC3CCC2C3)CC1 (stereo not shown) [compound 244]	–	–	x (activity was measured to be greater than 1.0 μM)	65 to 85	xx (activity was measured to be between 0.1 μM and 1.0 μM)	65 to 85	–
CCOC(=O)N1CCC(N2CCC3(CC2)CN(C(C)=O)c2ccc(CC)cc23)CC1 [compound 137]	–	–	x (activity was measured to be greater than 1.0 μM)	> 85	xxx (activity was measured to be less than 0.1 μM)	> 85	–
CCOC(=O)N1C2CCC1CC(N1CCC3(CC1)COc1ccc(F)cc13)C2 (stereo not shown) [compound 42]	–	–	xx (activity was measured to be between 0.1 μM and 1.0 μM)	> 85	xxx (activity was measured to be less than 0.1 μM)	> 85	–
CC(=O)NC1CCC2(CCN(CCC3CCCN(C(=O)C(C)(C)C)C3)CC2)c2ccccc21 (stereo not shown) [compound 828]	< 25	25 to 100	–	–	–	–	M4 Activity (M4 muscarinic receptor; [2]): x (activity was measured to be greater than 5.0 μM); M1 Activity (M1 muscarinic receptor; [3]): xxx (activity was measured to be less than 2.0 μM)
CN(C)C(=O)N1CC2(CCN(C3CCN(c4ncccn4)CC3)CC2)c2cc(F)ccc21 [compound 1032]	–	–	–	–	–	–	Emax (M4 muscarinic receptor; [10]): 25 to 100%; EC50 (M4 muscarinic receptor; Table 5): < 2000 nM; Emax (M1 muscarinic receptor; [10]): 25 to 100%; EC50 (M1 muscarinic receptor; Table 5): 2000 to 10000 nM
COc1ccc(F)cc1N1CCC(N2CCC3(CC2)CN(C(=O)N(C)C)c2ccc(F)cc23)CC1 [compound 814]	25 to 100	25 to 100	–	–	–	–	M4 Activity (M4 muscarinic receptor; [2]): xx (activity was measured to be between 2.0 μM and 5.0 μM); M1 Activity (M1 muscarinic receptor; [3]): x (activity was measured to be greater than 5.0 μM)
Cc1ccc2c(c1)C(=O)CC21CCN(CC2C[C@H]3C=C[C@H]2C3)CC1 (stereo partly shown) [compound 498]	25 to 100	25 to 100	–	–	–	–	M4 Activity (M4 muscarinic receptor; [8]): xxx (activity was measured to be less than 2.0 μM); M1 Activity (M1 muscarinic receptor; [9]): xxx (activity was measured to be less than 2.0 μM)
